Data taken from paper PMC4434044, “Influence of terpenoids and acarbose on glycosyltransferases produced by strain Leuconostoc mesenteroides URE 13” (Biotechnology, Biotechnological Equipment, 2014).

Columns and labels:
[1] = target: T1, dextransucrase from Leuconostoc mesenteroides URE 13; experiment: fructose/glucose release from sucrose, coupled hexokinase assay; Lineweaver-Burk; type: biochemical; details: 1-200 mmol sucrose, 20 mmol/L sodium acetate pH 5.2, 30 °C, inhibition mode not stated
T1 construct: native extracellular enzyme, 180 kDa, from sucrose-grown culture; PEG 1500 precipitation and Sepharose CL-6B size-exclusion

[2] = system: T1, dextransucrase from Leuconostoc mesenteroides URE 13; experiment: fructose/glucose release from sucrose, coupled hexokinase assay; type: biochemical; details: 20 mmol/L sodium acetate pH 5.2-5.3, 30 °C; substrate inhibition above 200 mmol
[3] = terpenoid dissolved in DMSO (20% final)

SMILES: CC(=O)OC1C=CC2C(=O)OCC23CCC2C(=O)OC(c4ccoc4)C(OC(C)=O)C2(C)C13 (stereo not shown) [splendidin]
- Ki [1, 3]: 0.28 mmol

SMILES: OC[C@H]1O[C@@](CO)(O[C@H]2O[C@H](CO)[C@@H](O)[C@H](O)[C@H]2O)[C@@H](O)[C@@H]1O [sucrose]
- Km [2]: 18.0 mmol

SMILES: C[C@H]1O[C@H](O[C@H]2[C@H](O)[C@@H](O)[C@@H](O[C@H]3[C@H](O)[C@@H](O)C(O)O[C@@H]3CO)O[C@@H]2CO)[C@H](O)[C@@H](O)[C@@H]1N[C@H]1C=C(CO)[C@@H](O)[C@H](O)[C@H]1O (stereo partly shown) [acarbose]
- Ki [1]: 0.29 mmol

SMILES: C[C@H]1[C@H](C)CC[C@]2(C(=O)O)CC[C@]3(C)C(=CC[C@@H]4[C@@]5(C)CC[C@H](O)C(C)(C)[C@@H]5CC[C@]43C)[C@H]12 [ursolic acid]
- Ki [1, 3]: 0.37 mmol
